{"source": "PubChem BioAssay (NCI)", "test_in_all_cases": "growth of human tumour cells (NCI), 48 h", "key": {"[1]": {"tested_on": "NCI-H226 lung"}, "[2]": {"tested_on": "T-47D breast"}, "[3]": {"tested_on": "PC-3 prostate"}, "[4]": {"tested_on": "IGROV1 ovarian"}, "[5]": {"tested_on": "OVCAR-4 ovarian"}, "[6]": {"tested_on": "LOX IMVI melanoma"}, "[7]": {"tested_on": "A549 NSCLC"}, "[8]": {"tested_on": "SF-539 CNS"}, "[9]": {"tested_on": "SW-620 colon"}, "[10]": {"tested_on": "MALME-3M melanoma"}, "[11]": {"tested_on": "OVCAR-3 ovarian"}, "[12]": {"tested_on": "SK-MEL-28 melanoma"}, "[13]": {"tested_on": "MDA-N"}, "[14]": {"tested_on": "KM12 colon"}, "[15]": {"tested_on": "UACC-257 melanoma"}, "[16]": {"tested_on": "SNB-19 CNS"}, "[17]": {"tested_on": "RPMI-8226 leukemia"}, "[18]": {"tested_on": "HOP-92 NSCLC"}, "[19]": {"tested_on": "A498 renal"}, "[20]": {"tested_on": "CCRF-CEM leukemia"}, "[21]": {"tested_on": "HT29 colon"}, "[22]": {"tested_on": "NCI/ADR-RES ovarian"}, "[23]": {"tested_on": "SNB-75 CNS"}, "[24]": {"tested_on": "MCF7 breast"}, "[25]": {"tested_on": "SF-295 CNS"}, "[26]": {"tested_on": "SN12C renal"}, "[27]": {"tested_on": "SK-MEL-2 melanoma"}, "[28]": {"tested_on": "HOP-62 NSCLC"}, "[29]": {"tested_on": "UACC-62 melanoma"}, "[30]": {"tested_on": "786-0 renal"}, "[31]": {"tested_on": "HCT-15 colon"}, "[32]": {"tested_on": "SR leukemia"}, "[33]": {"tested_on": "CAKI-1 renal"}, "[34]": {"tested_on": "MOLT-4 leukemia"}, "[35]": {"tested_on": "UO-31 renal"}, "[36]": {"tested_on": "OVCAR-5 ovarian"}, "[37]": {"tested_on": "DU-145 prostate"}, "[38]": {"tested_on": "SK-MEL-5 melanoma"}, "[39]": {"tested_on": "NCI-H23 lung"}, "[40]": {"tested_on": "HCT-116 colon"}, "[41]": {"tested_on": "U251 CNS"}, "[42]": {"tested_on": "M14 melanoma"}, "[43]": {"tested_on": "TK-10 renal"}, "[44]": {"tested_on": "K-562 leukemia"}, "[45]": {"tested_on": "EKVX NSCLC"}, "[46]": {"tested_on": "SF-268 CNS"}, "[47]": {"tested_on": "NCI-H522 lung"}, "[48]": {"tested_on": "HS 578T breast"}, "[49]": {"tested_on": "ACHN renal"}, "[50]": {"tested_on": "OVCAR-8 ovarian"}, "[51]": {"tested_on": "BT-549 breast"}, "[52]": {"tested_on": "HCC-2998 colon"}, "[53]": {"tested_on": "SK-OV-3 ovarian"}, "[54]": {"tested_on": "COLO 205 colon"}, "[55]": {"tested_on": "RXF 393 renal"}, "[56]": {"tested_on": "MDA-MB-435"}, "[57]": {"tested_on": "NCI-H460 lung"}, "[58]": {"tested_on": "MDA-MB-231 breast"}}, "note": "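Each compound was tested at five concentrations against cells in 96-well plates for 48 hours. TGI marks complete inhibition of growth.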", "data": [{"smiles": "C=C1C(=O)O[C@H]2C[C@@]3(C)[C@H](O)CCC(=C)[C@@H]3[C@@H](OC(C)=O)[C@H]12", "values": [{"measurement": "TGI", "setting": "[1]", "value": 49.2, "unit": "µM"}, {"measurement": "TGI", "setting": "[2]", "value": 29.5, "unit": "µM"}, {"measurement": "TGI", "setting": "[3]", "value": 37.3, "unit": "µM"}, {"measurement": "TGI", "setting": "[4]", "value": 30, "unit": "µM"}, {"measurement": "TGI", "setting": "[5]", "value": 20.8, "unit": "µM"}, {"measurement": "TGI", "setting": "[6]", "value": 19.7, "unit": "µM"}, {"measurement": "TGI", "setting": "[7]", "value": 33.7, "unit": "µM"}, {"measurement": "TGI", "setting": "[8]", "value": 10.2, "unit": "µM"}, {"measurement": "TGI", "setting": "[9]", "value": "> 100", "unit": "µM"}, {"measurement": "TGI", "setting": "[10]", "value": 3.52, "unit": "µM"}, {"measurement": "TGI", "setting": "[11]", "value": 26.9, "unit": "µM"}, {"measurement": "TGI", "setting": "[12]", "value": "> 65.9", "unit": "µM"}, {"measurement": "TGI", "setting": "[13]", "value": 20.6, "unit": "µM"}, {"measurement": "TGI", "setting": "[14]", "value": 36, "unit": "µM"}, {"measurement": "TGI", "setting": "[15]", "value": 34.8, "unit": "µM"}, {"measurement": "TGI", "setting": "[16]", "value": 31.5, "unit": "µM"}, {"measurement": "TGI", "setting": "[17]", "value": 68.7, "unit": "µM"}, {"measurement": "TGI", "setting": "[18]", "value": 16, "unit": "µM"}, {"measurement": "TGI", "setting": "[19]", "value": 44.2, "unit": "µM"}, {"measurement": "TGI", "setting": "[20]", "value": 2.96, "unit": "µM"}, {"measurement": "TGI", "setting": "[21]", "value": 25.9, "unit": "µM"}, {"measurement": "TGI", "setting": "[22]", "value": 76.8, "unit": "µM"}, {"measurement": "TGI", "setting": "[23]", "value": 29.2, "unit": "µM"}, {"measurement": "TGI", "setting": "[24]", "value": 9.84, "unit": "µM"}, {"measurement": "TGI", "setting": "[25]", "value": 40.5, "unit": "µM"}, {"measurement": "TGI", "setting": "[26]", "value": 29.5, "unit": "µM"}, {"measurement": "TGI", "setting": "[27]", "value": 37.6, "unit": "µM"}, {"measurement": "TGI", "setting": "[28]", "value": 32.8, "unit": "µM"}, {"measurement": "TGI", "setting": "[29]", "value": 37.3, "unit": "µM"}, {"measurement": "TGI", "setting": "[30]", "value": 32, "unit": "µM"}, {"measurement": "TGI", "setting": "[31]", "value": 7.93, "unit": "µM"}, {"measurement": "TGI", "setting": "[32]", "value": "> 20", "unit": "µM"}, {"measurement": "TGI", "setting": "[33]", "value": 3.23, "unit": "µM"}, {"measurement": "TGI", "setting": "[34]", "value": "> 31", "unit": "µM"}, {"measurement": "TGI", "setting": "[35]", "value": 27, "unit": "µM"}, {"measurement": "TGI", "setting": "[36]", "value": 25.3, "unit": "µM"}, {"measurement": "TGI", "setting": "[37]", "value": 26.6, "unit": "µM"}, {"measurement": "TGI", "setting": "[38]", "value": 26.4, "unit": "µM"}, {"measurement": "TGI", "setting": "[39]", "value": 27.6, "unit": "µM"}, {"measurement": "TGI", "setting": "[40]", "value": 22.2, "unit": "µM"}, {"measurement": "TGI", "setting": "[41]", "value": "> 71.3", "unit": "µM"}, {"measurement": "TGI", "setting": "[42]", "value": 25.2, "unit": "µM"}, {"measurement": "TGI", "setting": "[43]", "value": 24.1, "unit": "µM"}, {"measurement": "TGI", "setting": "[44]", "value": "> 23.3", "unit": "µM"}, {"measurement": "TGI", "setting": "[45]", "value": 38.1, "unit": "µM"}, {"measurement": "TGI", "setting": "[46]", "value": "> 52.2", "unit": "µM"}, {"measurement": "TGI", "setting": "[47]", "value": 4.13, "unit": "µM"}, {"measurement": "TGI", "setting": "[48]", "value": 38.5, "unit": "µM"}, {"measurement": "TGI", "setting": "[49]", "value": 12.9, "unit": "µM"}, {"measurement": "TGI", "setting": "[50]", "value": 50.4, "unit": "µM"}, {"measurement": "TGI", "setting": "[51]", "value": 25, "unit": "µM"}, {"measurement": "TGI", "setting": "[52]", "value": 30.3, "unit": "µM"}, {"measurement": "TGI", "setting": "[53]", "value": "> 83.6", "unit": "µM"}, {"measurement": "TGI", "setting": "[54]", "value": 7.06, "unit": "µM"}, {"measurement": "TGI", "setting": "[55]", "value": 14.7, "unit": "µM"}, {"measurement": "TGI", "setting": "[56]", "value": 44.4, "unit": "µM"}, {"measurement": "TGI", "setting": "[57]", "value": 25.7, "unit": "µM"}, {"measurement": "TGI", "setting": "[58]", "value": 36.6, "unit": "µM"}]}]}
